In patent publication US9557338B2 (SIGNAL PHARMACEUTICALS, LLC, priority 2012, dated 2017):
Like-named read-outs stand apart in the source and are kept apart here.

Key:
Format in all cases: cell-based
Phospho-PRAS40(T246) = assay: Luminex multiplex assay, Phospho-PRAS40(T246)
Excerpt: (§1) Determination of Phospho-GSK3β(S9), Phospho-PRAS40(T246) and Phospho-4E-BP1(T46) and the Effect of Compound 1 or Rapamycin.
(§2) The multiplex Luminex assay format differs from conventional enzyme-linked immunosorbent assay (ELISA) in that the multiplex capture antibody is attached to a polystyrene bead whereas the ELISA capture antibody is attached to the microplate well. The use of the suspension bead-based technology enables the multiplexing capabilities of the Luminex assays. The xMAP® technology uses 5.6 micron polystyrene microspheres, which are internally dyed with red and infrared fluorophores of differing intensities. Each bead is given a unique number, or bead region, allowing differentiation of one bead from another. Beads covalently bound to different specific antibodies can be mixed in the same assay, utilizing a 96-well microplate format. At the completion of the sandwich immunoassay, beads can be read, using the Luminex 100™ or Luminex 200 detection system, in single-file by dual lasers for classification and quantification of each analyte. The Akt-Pathway Phospho 5-plex kit used was custom made and includes the ability to simultaneously measure p-GSK3β (S9), p-PRAS40(T246), and p-4E-BP1(T46).
(§3) Cells were plated at the required density. The cells were treated with either Compound 1 or rapamycin over a range of concentrations for 1 hour in 5% CO2 at 37° C. Compound 1 and rapamycin were used at the same concentrations as for the proliferation assay. As for the cell proliferation assay, a reference standard was included in the assay for PC3 cells and the coefficient of variation for assay of p-GSK3β(S9) was 37.8% (n=30), p-PRAS40(T246) was 27.8% (n=30) and for p4E-BP1(T46) was 13.5% (n=4). For three cell lines (HCT-116, MDA-MB-231 and HT29) in the assay for phosphorylation of GSK3β, PRAS40 and 4E-BP1, IGF-I stimulation (500 ng/mL, recombinant human IGF-I) for the last 10 min of incubation was used. The media was aspirated from the wells and the plate was placed on ice. Then 35 μL of Lysis Buffer was added to each well and incubated on ice for at least 30 minutes. During the incubation, the standard curve for each phosphoprotein was prepared. The standards provided were reconstituted and serial dilutions were prepared according to the manufacturer's instructions. At the end of the cell lysis step, […] of the lysate was transferred to a V-bottom plate and spun at 4° C. at 2000 rpm for 5 minutes. Both the 1× Luminex bead and 1× detector antibody solutions were prepared during this time. The 1× bead solution was vortexed and 25 μL was added into each well of a black round bottom plate. Then 50 μL of the 1× detector antibody was added to each well. Fifty microliters (50 μL) of the prepared standards were added to the designated wells. Then 25 μL of the assay diluent was added to each well designated for the compound-treated cell lysates. At the end of the spin, 25 μL of cell lysate was added to the corresponding wells of the black assay plate. The assay plate was covered with the white plate lid and incubated for 3 hours at room temperature on an orbital shaker.
(§4) Approximately 10-15 minutes prior to the end of the first incubation, the secondary antibody solution was prepared according to the vendor's protocol. Goat anti-rabbit R-phycoerythrin red fluorescent protein (RPE) supplied as a 10× concentrate was diluted to generate a 1× goat anti-rabbit RPE stock. The 96-well filter plate was pre-wet with 200 μL of 1× Working wash solution. At the end of the 3 hour incubation, a multichannel pipette was used to transfer the entire contents from each assay well into the wells of the filter plate. The liquid from the wells was removed by aspiration with the vacuum manifold. Then 200 μL of 1× Working wash solution was added into each well. The wash solution was aspirated using the vacuum manifold after 15-30 seconds. This wash step was repeated one time. The bottom of the plate was blotted on clean paper towels to remove residual liquid. […]

p70S6K = assay: Luminex multiplex assay, p70S6K phosphorylation in cell lysates
Excerpt: as §2, §3, §4

Phospho-GSK3β(S9) = assay: Luminex multiplex assay, Phospho-GSK3β(S9)
Excerpt: as §1, §2, §3, §4

[1] = Homo sapiens, HCT-116, HCT116 cell line, IGF, read-out: Luminex PRAS40 (IGF)
[2] = Homo sapiens, U-87 MG, U87MG cell line, read-out: Luminex PRAS40
[3] = Homo sapiens, HCT-116, HCT116 cell line, IGF, read-out: Luminex p70S6K (IGF)
[4] = Homo sapiens, U-87 MG, U87MG cell line, read-out: Luminex p70S6K
[5] = Homo sapiens, HCT-116, HCT116 cell line, IGF, read-out: Luminex GSK-3β (IGF)
[6] = Homo sapiens, U-87 MG, U87MG cell line, read-out: Luminex GSK-3β
[7] = PC3 cell line, read-out: Luminex PRAS40
[8] = PC3 cell line, read-out: Luminex p70S6K
[9] = PC3 cell line, read-out: Luminex GSK-3β

| IC50 (Phospho-PRAS40(T246); [7]) [nM] | IC50 (p70S6K; [8]) [nM] | IC50 (Phospho-GSK3β(S9); [9]) [nM] | Compound | other results |
| --- | --- | --- | --- | --- |
|  |  |  | CC(C)(O)c1ccc(-c2cnc3c(n2)N(CC2CCOCC2)CC(=O)N3)cn1 [A-1, 6-(6-(2-hydroxypropan-2-yl)pyridin-3-yl)-4-((tetrahydro-2H-pyran-4-yl)methyl)-3,4-dihydropyrazino[2,3-b]pyrazin-2(1H)-one] | IC50 (Phospho-PRAS40(T246); [1]): 2610 nM; IC50 (Phospho-PRAS40(T246); [2]): 1660 nM; IC50 (p70S6K; [3]): 2120 nM; IC50 (p70S6K; [4]): 526 nM; IC50 (Phospho-GSK3β(S9); [5]): 1740 nM; IC50 (Phospho-GSK3β(S9); [6]): 1220 nM |
|  |  |  | CCn1c(=O)[nH]c2ncc(-c3ccc(-c4nnc[nH]4)nc3C)nc21 [A-2, 1-ethyl-6-(2-methyl-6-(4H-1,2,4-triazol-3-yl)pyridin-3-yl)-1H-imidazo[4,5-b]pyrazin-2(3H)-one] | IC50 (p70S6K; [3]): 1240 nM; IC50 (p70S6K; [4]): 433 nM |
|  |  |  | CO[C@H]1CC[C@H](N2CC(=O)Nc3ncc(-c4ccc(C(C)(C)O)nc4)nc32)CC1 [A-3, 6-(6-(2-hydroxypropan-2-yl)pyridin-3-yl)-4-((1r,4r)-4-methoxycyclohexyl)-3,4-dihydropyrazino[2,3-b]pyrazin-2(1H)-one] | IC50 (Phospho-PRAS40(T246); HCT116 cell line, IGF, read-out: Luminex PRAS40 (IGF)): 1370 nM; IC50 (Phospho-PRAS40(T246); U87MG cell line, read-out: Luminex PRAS40): 1160 nM; IC50 (p70S6K; HCT116 cell line, IGF, read-out: Luminex p70S6K (IGF)): 1820 nM; IC50 (p70S6K; U87MG cell line, read-out: Luminex p70S6K): 435 nM; IC50 (Phospho-GSK3β(S9); HCT116 cell line, IGF, read-out: Luminex GSK-3β (IGF)): 1290 nM; IC50 (Phospho-GSK3β(S9); U87MG cell line, read-out: Luminex GSK-3β): 1470 nM |
|  |  |  | Cc1nc(-c2nnc[nH]2)ccc1-c1cnc2c(n1)N(CCC1CCOCC1)C(=O)CN2 [A-4, 7-(2-methyl-6-(4H-1,2,4-triazol-3-yl)pyridin-3-yl)-1-(2-(tetrahydro-2H-pyran-4-yl)ethyl)-3,4-dihydropyrazino[2,3-b]pyrazin-2(1H)-one] | IC50 (Phospho-PRAS40(T246); [1]): 120 nM; IC50 (Phospho-PRAS40(T246); [2]): 98 nM; IC50 (p70S6K; [3]): 96.6 nM; IC50 (p70S6K; [4]): 27.8 nM; IC50 (Phospho-GSK3β(S9); [5]): 96.2 nM; IC50 (Phospho-GSK3β(S9); [6]): 71 nM |
|  |  |  | COCCN1CC(=O)Nc2ncc(-c3ccc(-c4nnc[nH]4)nc3C)nc21 [A-5, 4-(2-methoxyethyl)-6-(2-methyl-6-(4H-1,2,4-triazol-3-yl)pyridin-3-yl)-3,4-dihydropyrazino[2,3-b]pyrazin-2(1H)-one] | IC50 (Phospho-PRAS40(T246); [1]): 762 nM; IC50 (Phospho-PRAS40(T246); [2]): 1090 nM; IC50 (p70S6K; [3]): 514 nM; IC50 (p70S6K; [4]): 104 nM; IC50 (Phospho-GSK3β(S9); [6]): 2160 nM |
|  |  |  | CC(C)(O)c1ccc(-c2cnc3c(n2)N(CC2CCOCC2)CC(=O)N3)cc1 [A-6, 6-(4-(2-hydroxypropan-2-yl)phenyl)-4-((tetrahydro-2H-pyran-4-yl)methyl)-3,4-dihydropyrazino[2,3-b]pyrazin-2(1H)-one] | IC50 (Phospho-PRAS40(T246); [1]): 492 nM; IC50 (Phospho-PRAS40(T246); [2]): 3240 nM; IC50 (p70S6K; [3]): 654 nM; IC50 (p70S6K; [4]): 162 nM; IC50 (Phospho-GSK3β(S9); [6]): 2470 nM |
|  |  |  | CCn1c(=O)[nH]c2ncc(-c3ccc(-c4nc[nH]n4)c(F)c3C)nc21 [A-7, 1-ethyl-6-(3-fluoro-2-methyl-4-(1H-1,2,4-triazol-3-yl)phenyl)-1H-imidazo[4,5-b]pyrazin-2(3H)-one] | IC50 (Phospho-PRAS40(T246); [1]): 1020 nM; IC50 (Phospho-PRAS40(T246); [2]): 2850 nM; IC50 (p70S6K; [3]): 470 nM; IC50 (p70S6K; [4]): 145 nM; IC50 (Phospho-GSK3β(S9); [6]): > 5000 nM |
|  |  |  | C[C@@H](O)c1ccc(-c2cnc3c(n2)N(CCC2CCOCC2)C(=O)CN3)cn1 [A-8, (R)-7-(6-(1-hydroxyethyl)pyridin-3-yl)-1-(2-(tetrahydro-2H-pyran-4-yl)ethyl)-3,4-dihydropyrazino[2,3-b]pyrazin-2(1H)-one] | IC50 (Phospho-PRAS40(T246); [1]): 160 nM; IC50 (Phospho-PRAS40(T246); [2]): 255 nM; IC50 (p70S6K; [3]): 91 nM; IC50 (p70S6K; [4]): 35.5 nM; IC50 (Phospho-GSK3β(S9); [6]): 402 nM |
| > 1500 | 557 | > 1500 | CC(C)(O)c1ccc(-c2cnc3[nH]c(=O)n(CC4CCCCC4)c3n2)cc1 [C-1] |  |
| 1300 | 247 | 2590 | CC(C)(O)c1ccc(-c2cnc3[nH]c(=O)n(CCC4CCOCC4)c3n2)cn1 [C-3] |  |
| 678 | 134 | 1110 | CC(C)(O)c1ccc(-c2cnc3c(n2)N(CCC2CCOCC2)CC(=O)N3)cn1 [C-4] |  |
| 1750 | 156 | 964 | CC(C)(O)c1ccc(-c2cnc3c(n2)N(CC2CCOCC2)CC(=O)N3)cn1 [C-5] |  |
| 140 | 34 | 179 | CC(C)(O)c1ccc(-c2cnc3c(n2)N(CCC2CCOCC2)C(=O)CN3)cn1 [C-7] |  |
| 688 | 116 | 627 | CO[C@H]1CC[C@H](N2CC(=O)Nc3ncc(-c4ccc(C(C)(C)O)nc4)nc32)CC1 [C-8] |  |
| 624 |  | 1430 | COCCN1CC(=O)Nc2ncc(-c3ccc(-c4nnc[nH]4)nc3C)nc21 [C-10] |  |
| 754 | 201 | 1170 | CC(C)(O)c1ccc(-c2cnc3c(n2)N(CC2CCOCC2)CC(=O)N3)cc1 [C-11] |  |
| 2900 | 549 | > 5000 | CC(C)(O)c1ccc(-c2cnc3c(n2)N(CC2CC2)CC(=O)N3)cn1 [C-17] |  |

| IC50 (Phospho-PRAS40(T246); [7]) [nM] | IC50 (p70S6K; [8]) [nM] | IC50 (Phospho-GSK3β(S9); [9]) [nM] | Compound | other results |
| --- | --- | --- | --- | --- |
| 27 | 4 | 37 | O=C1CN(CCC2CCOCC2)c2nc(-c3ccc(-c4nnc[nH]4)c(F)c3)cnc2N1 [C-18] |  |
| 53 | 6 | 156 | COCCN1C(=O)CNc2ncc(-c3ccc(-c4nc[nH]n4)c(F)c3C)nc21 [C-19] |  |
| > 50 | 6 | > 50 | O=C1CNc2ncc(-c3ccc(-c4nnc[nH]4)c(F)c3)nc2N1CCC1CCOCC1 [C-20] |  |
| 795 | 105 | 1680 | COC1CCC(CN2CC(=O)Nc3ncc(-c4ccc(C(C)(C)O)nc4)nc32)C1 (stereo not shown) [C-21] |  |
| 1140 | 86 | 2980 | COC1CCC(CN2CC(=O)Nc3ncc(-c4ccc(C(C)(C)O)nc4)nc32)C1 (stereo not shown) [C-22] |  |
| 1440 | 207 | 1770 | COC1CCC(N2CC(=O)Nc3ncc(-c4ccc(C(C)(C)O)nc4)nc32)C1 (stereo not shown) [C-23] |  |
|  | 1 | 81 | COCCN1C(=O)CNc2ncc(-c3cnc(-c4nc[nH]n4)cc3C)nc21 [C-33] |  |
|  | 815 |  | Cc1cc(-c2nnc[nH]2)ccc1-c1cnc2c(n1)NC(=O)CN2 [C-35] |  |
|  | 16 |  | CO[C@@H]1CC[C@H](CN2CC(=O)Nc3ncc(-c4ccc(-c5nnc[nH]5)nc4C)nc32)C1 [C-36] |  |
|  | 24 |  | CO[C@H]1CC[C@@H](CN2CC(=O)Nc3ncc(-c4ccc(-c5nnc[nH]5)nc4C)nc32)C1 [C-37] |  |
| 1090 |  | 738 | CCN1CC(=O)Nc2ncc(-c3ccc(-c4nnc[nH]4)nc3C)nc21 [C-45] |  |
| 144 |  | 218 | COC1CCC(CN2C(=O)CNc3ncc(-c4ccc(-c5nc[nH]n5)nc4C)nc32)CC1 (stereo not shown) [C-46] |  |
| 55 |  | 58 | Cc1nc(-c2nnc[nH]2)ccc1-c1cnc2c(n1)N(C1CCOCC1)C(=O)CN2 [C-60] |  |
| 12 |  | 15 | CO[C@H]1CC[C@@H](CN2C(=O)CNc3ncc(-c4ccc(-c5nc[nH]n5)nc4C)nc32)CC1 [C-66] |  |
| 37 |  | 40 | Cc1nc(-c2nnc[nH]2)ccc1-c1cnc2c(n1)N(C1CCC(O)CC1)C(=O)CN2 (stereo not shown) [C-71] |  |
| 105 |  | 310 | Cc1nc(-c2nnc[nH]2)ccc1-c1cnc2c(n1)N(C1CCC(O)CC1)C(=O)CN2 (stereo not shown) [C-72] |  |
| 261 |  | 671 | Cc1nc(-c2nnc[nH]2)ccc1-c1cnc2c(n1)N(CCN1CCOCC1)C(=O)CN2 [C-73] |  |
